The text below walks through data of a melting point compilation (Tetko et al.; mined from patent text by program, amines drawn as free bases though some values may be those of a salt).

In general, melting point refers to the temperature, or range, at which the solid turns liquid.

`COc1ccc(O)c(C2(CO)C(=O)N(Cc3ccc(C(F)(F)F)o3)c3ccc(F)cc32)n1` (stereo not given) gave a melting point of 110 to 113 °C.

`CCCCCc1cc(OC)c(C2=C[C@H]3CC[C@]2(C(=O)O)C3(C)C)c(OC)c1` returned a melting point of 84 to 86 °C. Under `CCCCc1nc2cc3ccccc3cc2[nH]1` stands 190 °C; under `CN(C)Cc1cc(-c2ccccc2)c2c(n1)OCCN(Cc1cc(C(F)(F)F)cc(C(F)(F)F)c1)C2=O`, 186 to 188 °C; under `CC(=O)NC[C@H]1CN(c2ccc(C3=CCSCC3)c(F)c2)C(=O)O1`, 119 to 122 °C. On to `CC(=O)Nc1ccc(C2=NN(C(=O)CCl)C(C)Cc3cc4c(cc32)OCO4)cc1` (stereo not given), for which the melting point fell in the range of 138 to 140 °C. The value for `COc1ccc(Cl)cc1-c1c(NCn2nnc3ccccc32)c(=O)[nH]c2ccc(C(F)(F)F)cc12` was 217 to 219 °C.

Take `O=C1CCC2(CC1)OC(c1ccccc1)c1ccccc12` (stereo not given): the melting point lay in the range of 143 to 145 °C. The value for `COC(=O)c1cc([N+](=O)[O-])c(C(F)(F)F)cc1NC(C)=O` was 75 to 80 °C; that for `COc1cc2c(Nc3cc(O)c(C)cc3F)ncnc2cc1O` was 276 to 278 °C; that for `CCc1cc(CC)c(NC(=S)NC2CCCCC2)c(CC)c1` was 97 to 99 °C. Take `CC(C)N(CCOc1ccc(-c2nnc(CSCCOc3ccccc3)o2)cc1)C(C)C`: the melting point is 42 to 45 °C. Consider `CCCC1=C(C#N)C(c2ccccc2Cl)c2c(n[nH]c2-c2ccco2)N1` (stereo not given), for which the melting point came to 253 °C. The value for `Fc1cccc2c(NCCc3cccs3)ccnc12` was 157 to 158 °C.

`Cc1cc(Cl)ccc1N1C(=O)c2ccc(Br)cc2C1=O`: the melting point was 207 to 210 °C. Take `Cc1cccc(-c2[nH]nc(C(F)(F)F)c2-c2ccncc2)c1`: the melting point is 237 to 239 °C.

Regarding `CCCCNc1cc(CNC(C)=O)cc(S(N)(=O)=O)c1Oc1ccccc1`, the melting point is 190 to 191 °C. The value for `Cc1ccc(C(c2ccc(C)cc2)N2CCCC2)cc1` was 61 to 63 °C; that for `CC(C(=O)NC1Cc2ccccc2CC1O)c1ccccc1` (stereo not given) was 158 °C; that for `CC1(C)CCC(C)(C)c2cc(-c3csc(C=O)c3)ccc21` was 84 to 85 °C. In the case of `CC(O)(CCCc1ccc(Cl)cc1)c1ccc(OCc2ccc3ccccc3n2)cc1` (stereo not given), the melting point was in the range of 110 to 112 °C. The value for `N#Cc1cccnc1N1CCc2ccccc2CC1` was 110 to 112 °C; that for `COC(=O)NC1=NCC(c2cccc3ccccc23)N1C` (stereo not given) was 187 to 190 °C; that for `CC(C)(C)c1ccc(CNC(=S)NC(C)(C)c2ccc(NS(C)(=O)=O)cc2)cc1` was 161 to 164 °C. As for `COC(=O)c1cc(C(=O)OC)c(NCCCc2ccccc2)cn1`, the melting point fell in the range of 102 to 104 °C.

As to `Cc1oc(-c2cccs2)nc1COc1ccc(Cn2cc(CCC(=O)O)c(-c3ccccc3)n2)cc1`, the melting point was in the range of 159 to 160 °C. With `COC1=N/C(=C\c2c[nH]c3ncc(Cl)cc23)C(=O)N1c1ccccc1`, the melting point was found to be 228 °C. The value for `CCOc1nc(F)cc2nc(SSc3nc4cc(F)nc(OCC)n4n3)nn12` was 215 to 216 °C; that for `COc1ccnc(-c2cccs2)c1` was 43 to 45 °C; that for `CC[C@H]1Oc2ccccc2C(=O)N2CCC[C@@H]12` was 118 to 119 °C.

In turn, `N#CC1CN1C(=O)CCC(N)=O` (stereo not given) gave a melting point of 68 to 72 °C. In the case of `CN(C)CCCn1cc(-c2ccccc2)sc1=Nc1ccccc1`, the melting point lay within 84 to 86 °C. In turn, `CCCCCCCCCCNC(=O)C1=C(C(=O)Nc2cc(OC3CCCC3)c(Cl)cc2F)CCCC1` displayed a melting point of 128 to 130 °C. The value for `CCc1ccc(S(=O)(=O)O)cc1` was 45.1 to 46.5 °C; that for `COC(=O)c1ccc(C(C(N)=O)C(C)c2cc([N+](=O)[O-])ccc2N2CCCCC2)cc1` (stereo not given) was 178 to 180 °C. Molecule `CCNc1ccc(-c2nnsc2-c2ccc(NCC)cc2)cc1` yielded a melting point of 96.5 to 98.5 °C. As to `CCn1cc(-c2cc(-c3nc(C(C)C)[nH]c3-c3cccc(C)n3)ccc2F)cn1`, the melting point lay in the range of 76 to 78 °C.

The molecule `CCCOC(=O)C(Cc1ccccc1)(Cn1cncn1)c1ccccc1OC` (stereo not given) displayed a melting point of 129 to 130 °C. In turn, `C(=C\c1cc(/C=C/c2ccccc2-c2cccnc2)[nH]n1)/c1ccc2cc[nH]c2c1` showed a melting point of 248 to 255 °C. In the case of `CCCc1ccc(C(=O)Nc2ccc(C(=O)c3ccccc3)cc2)cc1`, the melting point lay within 119 to 122 °C.

Turning to `O=C(Nc1nnn[nH]1)c1cc(Cl)ccc1[N+](=O)[O-]`, the melting point was 268 to 269 °C. The value for `O=C1N(CCN2CCC(c3noc4cc(F)ccc34)CC2)CCN1Cc1ccccc1` was 126 to 130 °C. Under `CSc1ncncc1C(Cl)c1ccccc1F` (stereo not given) stands 144 to 145 °C; under `COc1ccccc1Oc1c(Cl)nc(-c2ccncc2)nc1NS(=O)(=O)c1ccc(C)cn1`, 177 to 179 °C; under `O=C1Cc2cc(Cl)ccc2N1O`, 202 to 208 °C. For the molecule `Cc1cc(OC/C=C/c2ccc(C(C)C)cc2)c(C)c(C)c1NC=O`, the melting point was in the range of 165 to 167 °C. The value for `COC(=O)C1=C(C=O)NC(C)=C(C(=O)OCC(C)C)C1c1ccccc1C#N` (stereo not given) was 152 to 154 °C.

`CN(C)c1ccc(-c2cccc3c2C2(COc4cc5c(cc42)OCO5)C(=O)N3)cn1` (stereo not given): the melting point is > 245 °C. Under `CNC(=O)NCCN1CCC(Nc2nc3ccccc3n2Cc2ccc(F)cc2)CC1` stands 231 °C; under `Clc1ccc(-c2c(CC3NCCS3)cnn2-c2ccccc2)cc1` (stereo not given), 170 to 172 °C. The value for `CN(C)NC(=O)Nc1cccc2c1C(=O)c1c-2n[nH]c1-c1ccc(N2CCNCC2)cc1` was 238 °C. Under `O=C(COc1noc(-c2ccccc2)c1Cl)NCCO[N+](=O)[O-]` stands 138 to 139 °C. In turn, `Clc1ccc(CNc2cc(Cl)nc(Cl)n2)cc1` displayed a melting point of 120 to 122 °C. `CCC(=O)N(C(=O)CC)c1c(OCc2ccccc2)cc(Br)cc1[N+](=O)[O-]`: the melting point lay in the range of 90 to 92 °C.

Consider `OCCC#Cc1cnc2ccccc2c1`, for which the melting point fell in the range of 95.7 to 96.7 °C.

The molecule `O=C(CCCI)Nc1ccccc1` had a melting point of 138 to 139 °C. In turn, `COC(=O)CCc1cc(Cl)ccc1C(=O)CCCNC(C)=O` returned a melting point of 46 to 48 °C. Regarding `COC(=O)C=C1NC(Cc2ccccc2)COC1=O` (stereo not given), the melting point was in the range of 82 to 83 °C. Under `COc1ccc(-c2nc(SC)ncc2-c2ccc(Cl)cc2)cc1` stands 127 to 130 °C; under `O=C(Nc1cnc(N2CCCC2)cc1C(F)(F)F)c1cc2cc(C(F)(F)F)cnc2n1Cc1cccc(F)c1`, 207 to 208 °C; under `CCOC(=O)c1cn(CC)nc1O`, 109 to 110 °C. Turning to `COc1ccc(N2CCOCC2)c2sc(C#N)nc12`, the melting point lay within 145 to 147 °C. Under `O=Cc1ccc(-c2ccc(-c3ccco3)o2)o1` stands 75 to 77 °C. The value for `O=c1[nH]cnc2c1cnn2-c1ncc(C(F)(F)F)cc1Cl` was 331 °C; that for `COc1cc(OC)c2c(=O)[nH]c(-c3ccc(OCCNC(C)C)c(-c4cccc(S(C)=O)c4)n3)nc2c1` (stereo not given) was 156 to 157 °C.

For the molecule `ClCc1cnc2cc(Cl)ccc2c1Cl`, the melting point was in the range of 106 to 107 °C. `COCN1C(C)=C(C(=O)OC)C(c2cccc(Cl)c2Cl)C(C(=O)OCOC(=O)C(C)(C)C)=C1C` (single isomer, unassigned; (+)) gave a melting point of 149 to 150 °C.

Molecule `CN(C)C(=O)c1ncn2c1CC(=O)N(c1ccccc1)c1cc(Cl)ccc1-2` registered a melting point of 255 to 257 °C. The molecule `CC(C)C(O)(Cc1ccccc1)Cc1ccccc1` displayed a melting point of 52 to 53 °C.

Turning to `CC(CCC=O)C1CC=C2C3=C(CCC21C)C1(C)CCC(=O)C(C)(C)C1CC3` (stereo not given), the melting point was 96.5 to 97 °C.

For `CCOC(=O)c1cn(C)c2ccc(F)cc2c1=O`, the melting point lay in the range of 193 to 195 °C. The value for `Clc1ccccc1N=Nc1ncc[nH]1` was 173 to 177 °C.

In the case of `Cc1cccc(NC(=O)NC2C(=O)Nc3ccccc3NC2=O)c1`, the melting point was > 300 °C.

As to `COc1cc(CO[Si](C(C)C)(C(C)C)C(C)C)ccc1OCc1nc(-c2cccc(-c3nnn[nH]3)c2)oc1C`, the melting point is 152 to 153 °C. The value for `COc1cc(C(C)C)ccc1C1COc2c(C)c(C)c(Br)c(C)c21` (stereo not given) was 102 to 103 °C; that for `CS(=O)c1n[nH]c2ccc(Cl)cc2c1=O` (stereo not given) was 267 to 272 °C. Under `CCOc1c(C)c(N2CCN(c3ccc(F)cc3)CC2)c(C)c2c1OC(C)(C)C2` stands 163 to 165 °C.

`Nc1c(Cl)cc(C(=CC(=O)N2CCOCC2)c2ccc(Cl)cc2)cc1Cl`: the melting point lay within 140 to 144 °C. The value for `CS(=O)(=O)Nc1ccc(C(=O)C2CCN(CCc3cn4ccccc4n3)CC2)cc1` was 190 to 191 °C; that for `CCOC(=O)c1c(CN(CC)CC)nc2sc3c(c2c1-c1ccc(OC)c(OC)c1)CCN(S(C)(=O)=O)C3` was 147 to 148 °C. Under `CN1CCN(c2cncc(Cl)n2)CC1=O` stands 122 to 123 °C; under `O=C1CC(c2cccc(-n3ccnc3)c2)=Nc2ccc(-c3ccccc3F)cc2N1`, 179 to 182 °C. Under `N=C(NCc1ccc(Cl)cc1)Nc1cccc(C(F)(F)F)c1` stands 103 to 105 °C; under `O=C(CCCl)Nc1ccc(C(=O)O)cc1`, 225 °C; under `O=P(O)(O)Cc1ccc(C(F)(F)F)cc1`, 163 to 164 °C.

As for `COc1ccccc1Oc1c(NS(=O)(=O)c2ccc(C(C)(C)C)cc2)nc(-c2ncccn2)nc1OCCOc1ncc(-c2ccccn2)cn1`, the melting point was in the range of 149 to 157 °C. In turn, `OCc1csc(N2CCSCC2)n1` registered a melting point of 83 to 84 °C. Under `N#Cc1ccc(C(Cc2ccc(C(F)(F)F)cn2)Cn2cncn2)cc1` (stereo not given) stands 78 °C; under `CN1CC[C@]2(c3ccccc3)CCCC[C@@]2(O)C1` (relative stereo), 84 to 87 °C. The value for `CCOC(=O)CN1C(=O)C(N=[N+]=[N-])CCc2ccc(OC)cc21` (stereo not given) was 90 to 91 °C.
